How the values were obtained:
[1] = Pharmacokinetic evaluation, single dosing (oral and intravenous) in rats; type: in vivo, male Sprague-Dawley rats; set-up: unit not given here; conditions: rat, plasma
Method: Pharmacokinetic profile for test compound was measured by single dosing in male Sprague-Dawley rats. Animal weights were typically over 200 grams, and animals were allowed to acclimate to their new environment for at least 3 days prior to the initiation of any studies. One set of animals was dosed intravenous with test compound, 2 mg/kg in 20% PEG400, 10% HS-15 Solutol, 70% 50 mM citrate buffer (pH 4.0). Intravenous dosing solution concentration was 1.0 mg/mL. Time of blood sampling was 5 minutes, 15 minutes, 30 minutes, 1 hour, 2 hours, 4 hours, 8 hours, and 24 hours following intravenous dosing. Another set of animals was dosed orally with test compound, 30 mg/kg in 20% PEG400, 10% HS-15 Solutol, 70% 50 mM citrate buffer (pH 4.0). Oral dosing solution concentration was 3.0 mg/mL. Time of blood sampling was 15 minutes, 30 minutes, 1 hour, 2 hours, 4 hours, 8 hours, and 24 hours following oral dosing. Blood samples (˜0.2 mL/sample) were collected via jugular vein and placed in tubes containing Heparin-Na. The blood samples in tubes were mixed and then placed on wet ice prior to centrifugation for plasma. The blood samples were centrifuged at 4000 g for 5 minutes at 4° C. to obtain plasma. The obtained plasma was separated and stored frozen at approximately −80° C.
All the plasma samples were analyzed using a Shimadzu (DGU-405) HPLC with an API 6500+MS/MS system following the manufacturer's instructions. All the analytes were detected with positive-mode electrospray ionization (ES+). A standard curve for each test compound was generated and used to measure test compound concentrations in the rat plasma samples. Based on the time course sampling, an area under the curve (AUC) was calculated for the oral group and intravenous group. The percentage of rat bioavailability is calculated based on the equation shown below.
where F is bioavailability, AUCPO is area under curve of oral dosing, AUCIV is area under curve of intravenous dosing, DoseIV is the intravenous dose and DosePO is the oral dose. The oral dosing for the experiments presented in Table 5 was performed at 10 mg/kg unless noted otherwise.

[2] = system: KRAS G12V dependent lung adenocarcinoma cell line, NCI-H441; experiment: Cellular pERK (Thr202/Tyr204) FRET/HTRF assay; type: cell-based; conditions: Homo sapiens
How it was run: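 NCI-H441 cells (KRAS G12V) were seeded and grown overnight at 37 °C, 5% CO2, then treated with compound in DMSO for 1 hr. Lysates were probed with a Eu3+-cryptate/d2 antibody sandwich against pERK1/2 Thr202/Tyr204 and read by HTRF at 665 nm; IC50 from curve fitting.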

[3] = NCI-H441, cellular pERK (Thr202/Tyr204) HTRF, NCI-H441 cells
[4] = NCI-H441, pERK HTRF, NCI-H441 cells (KRAS G12V)

| SMILES | IV (dose 2 mg/kg) (AUC/D) (h*mg/mL) [1] | PO (AUC/D) (h*mg/mL), dose 30 mg/kg [1] | IC50 [2, 3] [nM] | PO (dose 10 mg/kg) (AUC/D) (h*mg/mL) [1] | IC50 [2, 4] [nM] |
| --- | --- | --- | --- | --- | --- |
| [2H]C([2H])(Oc1nc(N2CCOC[C@H]3[C@H](F)[C@H]32)c2cnc(-c3cc(O)cc4ccc(F)c(C#C)c34)c(F)c2n1)[C@@]12CCCN1C[C@H](F)C2 [Example 217, 5-Ethynyl-6-fluoro-4-(8-fluoro-4-((1S,7S,8S)-8-fluoro-5-oxa-2-azabicyclo[5.1.0]octan-2-yl)-2-(((2R,7aS)-2-fluorotetrahydro-1H-pyrrolizin-7a(5H)-yl)methoxy-d2)pyrido[4,3-d]pyrimidin-7-yl)naphthalen-2-ol] | 143 | 0.5 | < 50 | – | – |
| [2H]C([2H])(Oc1nc(N2CCCO[C@H]3[C@H](F)[C@H]32)c2cnc(-c3cc(N)cc4cc(F)c(F)c(C#C)c34)c(F)c2n1)[C@@]12CCCN1C[C@H](F)C2 [Example 24, 5-Ethynyl-6,7-difluoro-4-(8-fluoro-4-((1R,7S,8R)-8-fluoro-2-oxa-6-azabicyclo[5.1.0]octan-6-yl)-2-(((2R,7aS)-2-fluorotetrahydro-1H-pyrrolizin-7a(5H)-yl)methoxy-d2)pyrido[4,3-d]pyrimidin-7-yl)naphthalen-2-amine] | 405 | – | – | 35 | < 50 |
| [2H]C([2H])(Oc1nc(N2CCOC[C@H]3[C@H](F)[C@H]32)c2cnc(-c3cc(N)cc4ccc(Cl)c(C#C)c34)c(F)c2n1)[C@@]12CCCN1C[C@H](F)C2 [Example 267, 6-Chloro-5-ethynyl-4-(8-fluoro-4-((1S,7S,8S)-8-fluoro-5-oxa-2-azabicyclo[5.1.0]octan-2-yl)-2-(((2R,7aS)-2-fluorotetrahydro-1H-pyrrolizin-7a(5H)-yl)methoxy-d2)pyrido[4,3-d]pyrimidin-7-yl)naphthalen-2-amine] | 1066 | – | < 50 | 97 | – |
| [2H]C([2H])(Oc1nc(N2CCOC[C@H]3[C@H](F)[C@H]32)c2cnc(-c3cc(O)cc4ccc(Cl)c(C#C)c34)c(F)c2n1)[C@@]12CCCN1C[C@H](F)C2 [Example 260, 6-chloro-5-ethynyl-4-(8-fluoro-4-((1S,7S,8S)-8-fluoro-5-oxa-2-azabicyclo[5.1.0]octan-2-yl)-2-(((2R,7aS)-2-fluorotetrahydro-1H-pyrrolizin-7a(5H)-yl)methoxy-d2)pyrido[4,3-d]pyrimidin-7-yl)naphthalen-2-ol] | 129 | – | < 50 | 0.4 | – |

Continued, values first:

| IV (dose 2 mg/kg) (AUC/D) (h*mg/mL) [1] | PO (AUC/D) (h*mg/mL), dose 30 mg/kg [1] | IC50 [2, 3] [nM] | PO (dose 10 mg/kg) (AUC/D) (h*mg/mL) [1] | IC50 [2, 4] [nM] | SMILES |
| --- | --- | --- | --- | --- | --- |
| 96 | – | < 50 | 0.0 | – | [2H]C([2H])(Oc1nc(N2CCCC[C@H]3[C@H](F)[C@H]32)c2cnc(-c3cc(O)cc4ccc(F)c(C#C)c34)c(F)c2n1)[C@@]12CCCN1C[C@H](F)C2 [Example 216, 5-ethynyl-6-fluoro-4-(8-fluoro-4-((1S,7R,8S)-8-fluoro-2-azabicyclo[5.1.0]octan-2-yl)-2-(((2R,7aS)-2-fluorotetrahydro-1H-pyrrolizin-7a(5H)-yl)methoxy-d2)pyrido[4,3-d]pyrimidin-7-yl)naphthalen-2-ol] |
| 1086 | 352 | – | – | < 50 | [2H]C([2H])([2H])Oc1c(F)ccc2cc(N)cc(-c3ncc4c(N5CCOC[C@H]6[C@H](F)[C@H]65)nc(OC([2H])([2H])[C@@]56CCCN5C[C@H](F)C6)nc4c3F)c12 [Example 90, 6-Fluoro-4-(8-fluoro-4-((1S,7S,8S)-8-fluoro-5-oxa-2-azabicyclo[5.1.0]octan-2-yl)-2-(((2R,7aS)-2-fluorotetrahydro-1H-pyrrolizin-7a(5H)-yl)methoxy-d2)pyrido[4,3-d]pyrimidin-7-yl)-5-(methoxy-d3)naphthalen-2-amine] |
| 323 | – | – | 22 | < 50 | [2H]C([2H])(Oc1nc(N2CCCO[C@H]3C(F)[C@H]32)c2cnc(-c3cc(N)cc4ccc(F)c(C#C)c34)c(F)c2n1)[C@@]12CCCN1C[C@H](F)C2 (stereo in doubt) [Example 89, 5-Ethynyl-6-fluoro-4-(8-fluoro-4-((1R,7S,8R)-8-fluoro-2-oxa-6-azabicyclo[5.1.0]octan-6-yl)-2-(((2R,7aS)-2-fluorotetrahydro-1H-pyrrolizin-7a(5H)-yl)methoxy-d2)pyrido[4,3-d]pyrimidin-7-yl)naphthalen-2-amine] |
| 1401 | – | – | 432 | < 50 | [2H]C([2H])([2H])Oc1c(F)ccc2cc(N)cc(-c3ncc4c(N5CCCC[C@H]6[C@H](F)[C@H]65)nc(OC([2H])([2H])[C@@]56CCCN5C[C@H](F)C6)nc4c3F)c12 [Example 58, 6-Fluoro-4-(8-fluoro-4-((1S,7R,8S)-8-fluoro-2-azabicyclo[5.1.0]octan-2-yl)-2-(((2R,7aS)-2-fluorotetrahydro-1H-pyrrolizin-7a(5H)-yl)methoxy-d2)pyrido[4,3-d]pyrimidin-7-yl)-5-(methoxy-d3)naphthalen-2-amine] |
| 609 | – | – | 142 | < 50 | [2H]C([2H])([2H])Oc1c(F)ccc2cc(N)cc(-c3ncc4c(N5CCCO[C@H]6[C@H](F)[C@H]65)nc(OC([2H])([2H])[C@@]56CCCN5C[C@H](F)C6)nc4c3F)c12 [Example 91, 6-Fluoro-4-(8-fluoro-4-((1R,7S,8R)-8-fluoro-2-oxa-6-azabicyclo[5.1.0]octan-6-yl)-2-(((2R,7aS)-2-fluorotetrahydro-1H-pyrrolizin-7a(5H)-yl)methoxy-d2)pyrido[4,3-d]pyrimidin-7-yl)-5-(methoxy-d′3) naphthalen-2-amine] |

From patent US20250282799A1, “SUBSTITUTED PYRIDO[4,3-d]PYRIMIDINES AS KRAS MODULATORS” (Alterome Therapeutics, Inc., priority 2023, published 2025)
